The target in experiment [1] is T1, GST fusion human ERK2 protein (Homo sapiens, UniProt P28482).
T1 construct: purchased Carna Biosciences, Inc; host or cells: E. coli expression system
In words: ERK2 enzyme assay (2). It counts as biochemical. The conditions noted are these: ERK2 enzyme assay (2); read-out: ERK2 enzyme inhibitory activity (2). As to the method:
In an ERK2 enzyme assay, GLUTATHIONE S-TRANSFERASE (GST) FUSION HUMAN ERK2 PROTEIN (manufactured by Carna Biosciences, Inc.), which was produced by using an E. coli expression system, was used.
12 μL of a reaction liquid (1.25 nmol/L ERK2, 100 mmol/L Hepes, 10 mmol/L MgCl2, 1.5 mmol/L DTT, 0.003% Brij35, pH 7.5) including ERK2 protein and a test compound having a predetermined concentration was allowed to stand at room temperature for 15 minutes. Then, 3 μL of a mixture liquid of FL-PEPTIDE8 (5-FAM-IPTSPITTTYFFFKKK-COOH) (manufactured by Caliper Life Sciences), which is substrate peptide, and ATP (manufactured by Sigma-Aldrich Co. LLC.) was added thereto such that the final concentrations thereof became 4.25 μmol/L and 1 mmol/L, respectively, and an enzyme reaction was performed by allowing to stand at 25° C. for 120 minutes.
After the reaction, the enzyme reaction was stopped by adding 30 μL of a reaction stopper liquid (100 mmol/L HEPES, 11.2 mmol/L EDTA, 5.6% Brij35, pH 7.5) including a 0.5% COATING REAGENT 8 (trade name, manufactured by Perkin Elmer Inc.) thereto. Then, phosphorylated peptide and non-phosphorylated peptide were separated using LABCHIP EZ READER (trade name, manufactured by Caliper Life Sciences), and the porportion of the phosphorylated peptide was quantified.
(§1) The inhibitory activities of the compounds were evaluated using IC50 (50% inhibitory concentration). The IC50 was calculated using XLFIT (trade name, manufactured by ID Business Solutions).

A further experiment deals with T2, human PI3Kα protein (Homo sapiens, UniProt P42336).
T2 construct: purchased Carna Biosciences, Inc; host or cells: baculovirus expression system
T2 sequence (P42336 whole entry): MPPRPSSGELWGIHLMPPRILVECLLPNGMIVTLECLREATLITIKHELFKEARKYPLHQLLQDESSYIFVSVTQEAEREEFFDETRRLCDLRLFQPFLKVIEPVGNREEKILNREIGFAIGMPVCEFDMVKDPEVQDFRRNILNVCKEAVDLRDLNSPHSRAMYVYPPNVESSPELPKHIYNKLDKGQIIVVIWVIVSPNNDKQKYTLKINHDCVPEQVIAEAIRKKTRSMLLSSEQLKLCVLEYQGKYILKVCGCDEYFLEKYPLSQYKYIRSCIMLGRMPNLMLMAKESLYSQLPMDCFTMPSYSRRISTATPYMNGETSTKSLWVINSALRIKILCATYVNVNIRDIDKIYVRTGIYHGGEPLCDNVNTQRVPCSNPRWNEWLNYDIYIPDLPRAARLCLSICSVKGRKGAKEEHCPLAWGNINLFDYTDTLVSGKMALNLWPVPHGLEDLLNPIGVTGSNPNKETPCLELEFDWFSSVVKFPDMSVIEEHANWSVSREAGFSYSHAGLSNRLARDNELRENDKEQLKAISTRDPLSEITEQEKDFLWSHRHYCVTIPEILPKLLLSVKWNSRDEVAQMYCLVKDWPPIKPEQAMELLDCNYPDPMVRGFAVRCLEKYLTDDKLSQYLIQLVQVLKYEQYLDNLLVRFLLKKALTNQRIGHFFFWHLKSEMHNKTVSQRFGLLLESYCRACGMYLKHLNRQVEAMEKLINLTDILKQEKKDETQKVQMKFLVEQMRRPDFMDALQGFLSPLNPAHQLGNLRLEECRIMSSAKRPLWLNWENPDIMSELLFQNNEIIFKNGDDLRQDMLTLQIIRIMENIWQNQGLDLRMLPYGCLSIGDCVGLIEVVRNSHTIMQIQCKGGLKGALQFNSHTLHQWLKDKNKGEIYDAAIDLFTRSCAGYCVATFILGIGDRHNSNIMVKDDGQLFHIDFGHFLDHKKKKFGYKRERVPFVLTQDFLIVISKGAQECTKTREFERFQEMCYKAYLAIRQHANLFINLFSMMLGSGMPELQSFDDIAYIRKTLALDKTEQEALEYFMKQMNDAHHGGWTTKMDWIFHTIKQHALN
T2 sequence (P27986 whole entry partner): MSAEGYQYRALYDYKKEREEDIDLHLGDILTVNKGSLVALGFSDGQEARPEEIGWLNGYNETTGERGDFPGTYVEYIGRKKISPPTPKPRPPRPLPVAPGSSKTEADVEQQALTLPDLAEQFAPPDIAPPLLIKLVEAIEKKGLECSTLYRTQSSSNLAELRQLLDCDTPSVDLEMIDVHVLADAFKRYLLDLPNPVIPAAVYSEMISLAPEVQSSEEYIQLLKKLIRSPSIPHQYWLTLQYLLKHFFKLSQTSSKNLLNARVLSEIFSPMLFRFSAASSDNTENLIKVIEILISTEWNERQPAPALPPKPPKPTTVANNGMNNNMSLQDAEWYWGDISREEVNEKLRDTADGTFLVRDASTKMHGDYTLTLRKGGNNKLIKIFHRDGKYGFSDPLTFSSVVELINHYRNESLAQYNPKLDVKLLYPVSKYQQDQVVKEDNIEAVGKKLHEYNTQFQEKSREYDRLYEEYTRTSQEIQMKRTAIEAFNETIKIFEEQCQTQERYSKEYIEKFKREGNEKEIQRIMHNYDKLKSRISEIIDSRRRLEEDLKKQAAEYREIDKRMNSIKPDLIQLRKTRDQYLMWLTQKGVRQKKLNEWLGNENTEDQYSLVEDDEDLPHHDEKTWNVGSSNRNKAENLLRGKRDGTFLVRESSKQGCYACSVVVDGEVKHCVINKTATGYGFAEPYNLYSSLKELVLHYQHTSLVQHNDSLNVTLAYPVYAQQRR
Briefly: PI3Kα enzyme assay (ADP-Glo). It counts as biochemical. The conditions noted are these: read-out: PI3Kα enzyme inhibitory activity. How it is done: In a PI3Kα enzyme assay, a product (manufactured by Carna Biosciences, Inc.) obtained by biotinylating a human PI3Kα protein produced by using a baculovirus expression system was used. In addition, in the detection of enzyme activity, ADP-GLO KINASE ASSAY (trade name, manufactured by PROMEGA Corporation) was used.
10 μL of a reaction liquid (4.5 nmol/L PI3Kα, 40 mmol/L Tris-HCl, 20 mmol/L MgCl2, 0.1% BSA, pH 7.5) including the human PI3Kα protein and a test compound having a predetermined concentration was allowed to stand at room temperature for 15 minutes. Then, 5 μL of a mixture liquid of L-α-phosphatidylinositol 4,5-diphosphate (PIP2) (manufactured by Sigma-Aldrich Co. LLC.) and ATP (manufactured by Sigma-Aldrich Co. LLC.), which are substrates, was added thereto such that final concentrations thereof became 50 μmol/L and 100 μmol/L, respectively, and an enzyme reaction was performed by allowing to stand at 25° C. for 60 minutes.
After the reaction, the enzyme reaction was stopped by adding 15 μL of an ADP-GLO REAGENT (trade name, manufactured by PROMEGA Corporation) thereto and allowing to stand at room temperature for 60 minutes. Then, 30 μL of a KINASE DETECTION REAGENT (trade name, manufactured by PROMEGA Corporation) was added thereto, followed by allowing to stand at room temperature for 40 minutes, and ADP produced by the enzyme reaction was quantified by emission intensity.
ENVISION (trade name, manufactured by Perkin Elmer Inc.) was used for the measurement of the emission intensity.
as §1
A general note: ADP-Glo turns the ADP formed in a reaction into a luminescent signal.

Structures can show the parent of a compound that is named as a salt.

T1 sequence (P28482 whole entry, the tested form may be a part): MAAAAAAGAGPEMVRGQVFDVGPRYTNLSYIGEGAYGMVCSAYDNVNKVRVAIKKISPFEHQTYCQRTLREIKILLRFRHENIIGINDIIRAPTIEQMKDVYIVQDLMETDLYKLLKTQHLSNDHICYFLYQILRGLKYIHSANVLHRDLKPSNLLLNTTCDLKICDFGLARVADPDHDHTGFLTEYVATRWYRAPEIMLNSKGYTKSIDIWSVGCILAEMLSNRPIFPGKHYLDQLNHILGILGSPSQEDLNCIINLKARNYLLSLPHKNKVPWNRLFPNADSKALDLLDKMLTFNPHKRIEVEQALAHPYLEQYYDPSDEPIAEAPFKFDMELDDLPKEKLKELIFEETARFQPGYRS

For `CC(C)c1cnnc(Nc2ccc3ncc(-c4cnn(CC5CCNCC5)c4)cc3n2)c1` [Example 0485, trifluoroacetic acid salt of N-(5-isopropylpyridazin-3-yl)-7-(1-(piperidin-4-ylmethyl)-1H-pyrazol-4-yl)-1,5-naphthyridine-2-amine], the IC50 (in experiment [1]; at human PI3Kα protein) was below 1000 nM each time.

Take `CC(C)c1cnnc(Nc2ccc3ncc(-c4cnn(CCC5CCNCC5)c4)cc3n2)c1` [Example 0488, hydrochloric acid salt of N-(5-isopropylpyridazin-3-yl)-7-(1-(2-(piperidin-4-yl)ethyl)-1H-pyrazol-4-yl)-1,5-naphthyridine-2-amine]: the IC50 (in experiment [1]; on human PI3Kα protein) was below 1000 nM throughout.

With `Cc1ccnnc1Nc1ccc2ncc(-c3cnn(C)c3)cc2n1` [Example 0489], the IC50 in experiment [1] was 1000 to 10000 nM; at human PI3Kα protein it was 10000 to 50000 nM.

`Cc1cn(-c2cnc3ccc(Nc4cc(C(C)C)cnn4)nc3c2)cn1` [Example 0494, N-(5-isopropylpyridazin-3-yl)-7-(4-methyl-1H-imidazol-1-yl)-1,5-naphthyridine-2-amine]: the IC50 (in experiment [1]; on human PI3Kα protein) was below 1000 nM in each case.

In the case of `COc1cnnc(Nc2ccc3ncc(-c4cnn(C)c4)cc3n2)c1` [Example 0495, N-(5-methoxypyridazin-3-yl)-7-(1-methyl-1H-pyrazol-4-yl)-1,5-naphthyridine-2-amine], the IC50 (in experiment [1]; at human PI3Kα protein) was below 1000 nM in each case.

For `COc1cnnc(Nc2ccc3ncc(-c4cnn(CCCN5CCOCC5)c4)cc3n2)c1` [Example 0496, N-(5-methoxypyridazin-3-yl)-7-(1-(3-morpholinopropyl)-1H-pyrazol-4-yl)-1,5-naphthyridine-2-amine], the IC50 (in experiment [1]; on human PI3Kα protein) was below 1000 nM each time.

In the case of `CC(C)c1cnnc(Nc2ccc3ncc(-n4cnc(CO)c4)cc3n2)c1` [Example 0497, (1-(6-((5-isopropylpyridazin-3-yl)amino)-1,5-naphthyridin-3-yl)-1H-imidazol-4-yl)methanol], the values for the IC50 (in experiment [1]; on human PI3Kα protein) were below 1000 nM and 1000 to 10000 nM, respectively.

As to `CC(C)c1cnnc(Nc2ccc3ncc(-c4cnc(N5CCN(C)CC5)s4)cc3n2)c1` [Example 0498, N-(5-isopropylpyridazin-3-yl)-7-(2-(4-methylpiperazin-1-yl)thiazol-5-yl)-1,5-naphthyridine-2-amine], the IC50 (in experiment [1]; at human PI3Kα protein) was below 1000 nM in each case.

With `CCOc1cnnc(Nc2ccc3ncc(-c4cnn(C)c4)cc3n2)c1` [Example 0499], the IC50 (in experiment [1]; on human PI3Kα protein) was below 1000 nM in each case.

Turning to `CC(C)Oc1cnnc(Nc2ccc3ncc(-c4cnn(CCCN5CCOCC5)c4)cc3n2)c1` [Example 0501], the IC50 (in experiment [1]; on human PI3Kα protein) was 1000 to 10000 nM in each case.

`CC(C)c1cnnc(Nc2ccc3ncc(-c4cnc(N5CCNCC5)s4)cc3n2)c1` [Example 0502]: the IC50 (in experiment [1]; on human PI3Kα protein) was below 1000 nM in each case.

Regarding `CC(C)c1cnnc(Nc2ccc3ncc(-n4cnc(CCN(C)C)c4)cc3n2)c1` [Example 0503, 7-(4-(2-(Dimethylamino)ethyl)-1H-imidazol-1-yl)-N-(5-isopropylpyridazin-3-yl)-1,5-naphthyridine-2-amine], the IC50 (in experiment [1]; at human PI3Kα protein) was below 1000 nM in each case.

Regarding `CC(=O)NCCc1cn(-c2cnc3ccc(Nc4cc(C(C)C)cnn4)nc3c2)cn1` [Example 0504, N-(2-(1-(6-((5-isopropylpyridazin-3-yl)amino)-1,5-naphthyridin-3-yl)-1H-imidazol-4-yl)ethyl)acetamide], the IC50 (in experiment [1]; at human PI3Kα protein) was below 1000 nM each time.

As to `CC(C)c1cnnc(Nc2ccc3ncc(-n4cnc(CCNC(=O)OC(C)(C)C)c4)cc3n2)c1` [Example 0505, tert-Butyl (2-(1-(6-((5-isopropylpyridazin-3-yl)amino)-1,5-naphthyridin-3-yl)-1H-imidazol-4-yl)ethyl)carbamate], the IC50 in experiment [1] was below 1000 nM; at human PI3Kα protein, 1000 to 10000 nM.

As to `CC(C)c1cnnc(Nc2ccc3ncc(-n4cnc(CCN)c4)cc3n2)c1` [Example 0506, Hydrochloric acid salt of 7-(4-(2-aminoethyl)-1H-imidazol-1-yl)-N-(5-isopropylpyridazin-3-yl)-1,5-naphthyridine-2-amine], the IC50 in experiment [1] is below 1000 nM; on human PI3Kα protein it was 1000 to 10000 nM.

Take `CC(C)c1cnnc(Nc2ccc3ncc(-c4cnc(OC5CCN(C)CC5)s4)cc3n2)c1` [Example 0507]: the IC50 (in experiment [1]; at human PI3Kα protein) was below 1000 nM throughout.

Regarding `CC(C)c1cnnc(Nc2ccc3ncc(-n4cnc(CC#N)c4)cc3n2)c1` [Example 0508, 2-(1-(6-((5-Isopropylpyridazin-3-yl)amino)-1,5-naphthyridin-3-yl)-1H-imidazol-4-yl)acetonitrile], the IC50 (in experiment [1]; on human PI3Kα protein) was below 1000 nM each time.

`CC(C)c1cnnc(Nc2ccc3ncc(-c4cncn4C)cc3n2)c1` [Example 0509, N-(5-isopropylpyridazin-3-yl)-7-(1-methyl-1H-imidazol-5-yl)-1,5-naphthyridine-2-amine]: the IC50 is below 1000 nM in experiment [1] and 1000 to 10000 nM at human PI3Kα protein.

As to `CC(C)c1cnnc(Nc2ccc3ncc(N4CCC(CO)CC4)cc3n2)c1` [Example 0511, (1-(6-((5-Isopropylpyridazin-3-yl)amino)-1,5-naphthyridin-3-yl)piperidin-4-yl)methanol], the IC50 in experiment [1] was below 1000 nM; on human PI3Kα protein, 1000 to 10000 nM.

On to `CC(C)c1cnnc(Nc2ccc3ncc(-n4cnc5ccccc54)cc3n2)c1` [Example 0512], for which the IC50 in experiment [1] was below 1000 nM; on human PI3Kα protein, 1000 to 10000 nM.

Take `CCc1nc(C)cn1-c1cnc2ccc(Nc3cc(C(C)C)cnn3)nc2c1` [Example 0514]: the results for the IC50 (in experiment [1]; on human PI3Kα protein) were below 1000 nM and 1000 to 10000 nM, respectively.

`CN(C)c1cnnc(Nc2ccc3ncc(-c4cnn(C)c4)cc3n2)c1` [Example 0518]: the IC50 (in experiment [1]; on human PI3Kα protein) was below 1000 nM in each case.

As for `CC(C)c1cnnc(Nc2ccc3ncc(-c4cnn(CC5CCCCC5)c4)cc3n2)c1` [Example 0519, 7-(1-(Cyclohexylmethyl)-1H-pyrazol-4-yl)-N-(5-isopropylpyridazin-3-yl)-1,5-naphthyridine-2-amine], the IC50 in experiment [1] is below 1000 nM; at human PI3Kα protein, 1000 to 10000 nM.

`Cn1cc(-c2cnc3ccc(Nc4cc(N5CCCC5)cnn4)nc3c2)cn1` [Example 0520]: the figures for the IC50 (in experiment [1]; at human PI3Kα protein) were below 1000 nM and 1000 to 10000 nM, respectively.

With `CC(C)c1cnnc(Nc2ccc3ncc(-c4cnn(C[C@H]5CC[C@H](O)CC5)c4)cc3n2)c1` [Example 0521], the IC50 (in experiment [1]; at human PI3Kα protein) was below 1000 nM in each case.

With `CO[C@H]1CC[C@H](Cn2cc(-c3cnc4ccc(Nc5cc(C(C)C)cnn5)nc4c3)cn2)CC1` [Example 0522, N-(5-isopropylpyridazin-3-yl)-7-(1-(((1r,4r)-4-methoxycyclohexyl)methyl)-1H-pyrazol-4-yl)-1,5-naphthyridine-2-amine], the IC50 (in experiment [1]; at human PI3Kα protein) was below 1000 nM throughout.

As to `CCCN(CCC)c1cnnc(Nc2ccc3ncc(-c4cnn(C)c4)cc3n2)c1` [Example 0523], the IC50 (in experiment [1]; on human PI3Kα protein) was below 1000 nM in each case.

As to `CCN(CCO[Si](C)(C)C(C)(C)C)c1cnnc(Nc2ccc3ncc(-c4cnn(C)c4)cc3n2)c1` [Example 0524], the IC50 in experiment [1] was below 1000 nM; on human PI3Kα protein, 10000 to 50000 nM.

Take `CCN(CCO)c1cnnc(Nc2ccc3ncc(-c4cnn(C)c4)cc3n2)c1` [Example 0525]: the IC50 (in experiment [1]; on human PI3Kα protein) was below 1000 nM in each case.

In the case of `Cn1cc(-c2cnc3ccc(Nc4cc(C(C)(C)C)cnn4)nc3c2)cn1` [Example 0526], the IC50 (in experiment [1]; on human PI3Kα protein) was below 1000 nM throughout.

`Cc1cnnc(Nc2ccc3ncc(-c4cn(C)nc4-c4cccnc4)cc3n2)c1` [Example 0527]: the IC50 was 1000 to 10000 nM in experiment [1] and below 1000 nM at human PI3Kα protein.

(Values after US9783536B2, “Nitrogen-containing heterocyclic compound or salt thereof” (FUJIFILM Corporation, priority 2013, dated 2017).)
